Measurements as given in patent US20080032897A1, “Methods of screening for inhibitors of autoinhibited proteins” (priority 2004, published 2008).
Entries after “also recorded” stand apart in the source; their conditions may differ.

How the values were obtained:
[1] = test system: N-WASP; settings: cited from earlier work
[2] = biological target: T1, WASP (Homo sapiens, UniProt P42768); settings: cited from earlier work
T1 sequence (P42768 with tags, fused parts or gaps limits assumed): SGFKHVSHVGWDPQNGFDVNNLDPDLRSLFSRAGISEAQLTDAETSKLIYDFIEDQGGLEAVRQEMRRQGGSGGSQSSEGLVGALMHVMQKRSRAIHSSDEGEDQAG

[3] = test system: Pak; settings: reported; cited from earlier work
[4] = test system: mixed-lineage kinases (MLKs); settings: reported; cited from earlier work
[5] = biological target: T2, full-length Pak1 (Homo sapiens, UniProt Q13153); assay: luminescence-based (Kinase Glo) kinase assay, Cdc42-activated full-length Pak1; type: biochemical; settings: 384-well plates, ATP-dependent luminescence, FIG. 9C
T2 construct: made in house; host or cells: Sf9 cells
Procedure: In some embodiments, the kinase activity of these two proteins (wild-type full length kinase, and isolated kinase domain) is measured in parallel using a validated luminescence-based assay. In this assay, kinase activity is based on a measurement of the residual ATP in the reaction following kinase-mediated ATP hydrolysis (Kinase Glo®; Promega®). This is an endpoint assay in which kinase reactions are allowed to proceed until a predetermined timepoint at which point the addition of the Kinase Glo® detection mix containing luciferase and luciferin stops the kinase reaction and utilizes the residual ATP to convert luciferin to oxyluciferin with the accompanying emission of a photon of light. Intensity of the emitted light is linearly correlated with ATP concentration. […]
The isolated kinase domain or full-length Pak1 in assay buffer is aliquotted into individual wells of a 384-well plate using a Bio-Tek MicroFill®. […] The reaction is stopped by the addition of Kinase Glo® reagent (15 μl/well), and is incubated at room temperature for 10-30 minutes to allow development of luminescence. Luminescence is read in a Cary Eclipse (Varian®) fluorometer/luminometer outfitted for reading 384-well plates.
A luminescence-based assay for kinase activity is used based on measurement of residual ATP in the reaction following kinase-mediated ATP hydrolysis. […]

T2 sequence (Q13153 whole entry): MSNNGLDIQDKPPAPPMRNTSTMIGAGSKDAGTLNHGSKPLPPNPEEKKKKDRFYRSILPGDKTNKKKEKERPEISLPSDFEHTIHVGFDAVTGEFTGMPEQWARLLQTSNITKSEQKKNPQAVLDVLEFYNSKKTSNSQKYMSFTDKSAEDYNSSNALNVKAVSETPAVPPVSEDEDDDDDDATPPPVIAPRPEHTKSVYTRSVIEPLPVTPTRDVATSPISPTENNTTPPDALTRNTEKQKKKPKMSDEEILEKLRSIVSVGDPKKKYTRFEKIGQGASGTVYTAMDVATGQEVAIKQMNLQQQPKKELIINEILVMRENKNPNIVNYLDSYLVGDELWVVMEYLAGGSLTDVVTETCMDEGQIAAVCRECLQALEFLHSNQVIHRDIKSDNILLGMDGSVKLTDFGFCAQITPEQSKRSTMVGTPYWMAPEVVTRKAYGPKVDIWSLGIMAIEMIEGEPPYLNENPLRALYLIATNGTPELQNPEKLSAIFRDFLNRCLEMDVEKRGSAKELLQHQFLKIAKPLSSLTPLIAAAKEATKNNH

Structure (SMILES): CN(C)C[C@H](O)Cn1c2ccc(Br)cc2c2cc(Br)ccc21 (racemic) [wiskostatin]
- inhibition of N-WASP [1]: chemical inhibitors of N-WASP
- binding site on WASP ([2]; NMR structure): bound exclusively to the PBD in its autoinhibited conformation
- effect on autoinhibited fold of the PBD ([2]; biophysical experiments): stabilizes the autoinhibited fold of the PBD

Structure (SMILES): CCSCc1ccc2c(c1)c1c3c(c4c5cc(CSCC)ccc5n5c4c1n2[C@H]1C[C@](O)(C(=O)OC)[C@]5(C)O1)CNC3=O [CEP-1347]
- concentration at which Pak is inhibited [3]: low micromolar
- potency against MLKs relative to Pak [4]: at least an order of magnitude more potent

Structure (SMILES): CN[C@@H]1C[C@H]2O[C@@](C)([C@@H]1OC)n1c3ccccc3c3c4c(c5c6ccccc6n2c5c31)C(=O)NC4 [staurosporine]
- inhibition of Pak1 kinase activity [5]: successfully detects inhibition of Pak; also recorded: readily detected
